Experimental data as given in patent US11377423B2, “Inhibitors of histone deacetylase” (The Broad Institute, Inc., priority 2012, dated 2022).
Where two headings read alike, the source gives them in different places.

Experiments:
HDAC3 = HDAC3 (Homo sapiens (Human), UniProt O15379); test: Caliper HDAC enzymatic endpoint assay, HDAC3; format: biochemical
Method: (§1) Substrate A was prepared as 2 mM in DMSO. Its final concentration in the assay for HDACs 1, 2, 3, 6 is 2 μM.
(§2) Below is the HDAC and Substrate concentration used in this assay.

HDAC1 = HDAC1 (Homo sapiens (Human), UniProt Q13547); test: Caliper HDAC enzymatic endpoint assay, HDAC1; format: biochemical
Method: as §1, §2

HDAC2 = HDAC2 (Homo sapiens (Human), UniProt Q92769); test: Caliper HDAC enzymatic endpoint assay, HDAC2; format: biochemical
Chain of HDAC2 (Q92769 whole entry, canonical isoform): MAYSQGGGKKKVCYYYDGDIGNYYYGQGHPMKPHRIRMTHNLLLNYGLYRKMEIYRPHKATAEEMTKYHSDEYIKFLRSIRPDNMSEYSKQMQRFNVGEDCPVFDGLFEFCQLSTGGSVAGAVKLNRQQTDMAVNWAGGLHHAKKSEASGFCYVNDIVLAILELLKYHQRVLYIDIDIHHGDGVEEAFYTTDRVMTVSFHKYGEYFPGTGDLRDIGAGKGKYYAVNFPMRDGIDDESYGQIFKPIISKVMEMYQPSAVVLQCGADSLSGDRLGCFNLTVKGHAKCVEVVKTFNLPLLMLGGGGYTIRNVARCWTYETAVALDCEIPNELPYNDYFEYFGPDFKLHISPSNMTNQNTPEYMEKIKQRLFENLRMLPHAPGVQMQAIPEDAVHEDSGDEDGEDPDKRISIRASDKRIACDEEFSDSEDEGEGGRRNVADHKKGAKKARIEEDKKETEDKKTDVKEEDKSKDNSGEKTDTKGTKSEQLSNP
Method: as §1, §2

[1] = test system: HDACs 1, 2, 3, 4, 5, 6, 7, 8, and 9; test: HDAC selectivity panel (Caliper), isoform selectivity; details: from IC50 values
[2] = Brain and plasma concentration in mice; format: in vivo; details: for half-life: mouse, other: injected (site of injection not given)
Method: Specifically, mice were injected with a single dose of compound and the concentration of compound was measured in the brain and plasma of mice at 8 time points. The samples were analyzed by LC-MS/MS.

[3] = read-out: HDAC3 IC50 3 h Preinc, Table 2A, 3 h preincubation
[4] = read-out: HDAC1 IC50 3 h Preinc, Table 2A, 3 h preincubation
[5] = read-out: HDAC2 IC50 3 h Preinc, Table 2A, 3 h preincubation
[6] = read-out: HDAC3 IC50 3 h Prein, Table 2, 3 h preincubation
[7] = read-out: HDAC1 IC50 3 h Prein, Table 2, 3 h preincubation
[8] = read-out: HDAC2 IC50 3 h Prein, Table 2, 3 h preincubation
[9] = mice, single dose, Repligen 136 30 mg/kg, Compound 1 10 mg/kg

Chain of HDAC3 (O15379 whole entry): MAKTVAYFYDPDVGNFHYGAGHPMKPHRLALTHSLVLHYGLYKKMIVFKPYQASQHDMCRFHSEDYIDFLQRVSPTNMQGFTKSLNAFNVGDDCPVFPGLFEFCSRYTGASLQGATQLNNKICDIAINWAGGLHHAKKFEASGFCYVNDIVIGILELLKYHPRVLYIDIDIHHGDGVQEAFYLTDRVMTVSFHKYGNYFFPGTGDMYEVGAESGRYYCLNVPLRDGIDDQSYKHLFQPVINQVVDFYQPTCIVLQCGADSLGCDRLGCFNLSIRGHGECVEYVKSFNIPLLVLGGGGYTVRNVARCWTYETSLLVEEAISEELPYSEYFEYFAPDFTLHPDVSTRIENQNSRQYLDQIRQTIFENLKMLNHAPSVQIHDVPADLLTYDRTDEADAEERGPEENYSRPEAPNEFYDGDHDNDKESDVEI
Chain of HDAC3 (Q9Y618 395-489 partner): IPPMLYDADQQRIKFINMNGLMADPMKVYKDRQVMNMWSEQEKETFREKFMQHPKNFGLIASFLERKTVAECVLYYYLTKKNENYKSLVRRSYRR
Chain of HDAC1 (Q13547 whole entry): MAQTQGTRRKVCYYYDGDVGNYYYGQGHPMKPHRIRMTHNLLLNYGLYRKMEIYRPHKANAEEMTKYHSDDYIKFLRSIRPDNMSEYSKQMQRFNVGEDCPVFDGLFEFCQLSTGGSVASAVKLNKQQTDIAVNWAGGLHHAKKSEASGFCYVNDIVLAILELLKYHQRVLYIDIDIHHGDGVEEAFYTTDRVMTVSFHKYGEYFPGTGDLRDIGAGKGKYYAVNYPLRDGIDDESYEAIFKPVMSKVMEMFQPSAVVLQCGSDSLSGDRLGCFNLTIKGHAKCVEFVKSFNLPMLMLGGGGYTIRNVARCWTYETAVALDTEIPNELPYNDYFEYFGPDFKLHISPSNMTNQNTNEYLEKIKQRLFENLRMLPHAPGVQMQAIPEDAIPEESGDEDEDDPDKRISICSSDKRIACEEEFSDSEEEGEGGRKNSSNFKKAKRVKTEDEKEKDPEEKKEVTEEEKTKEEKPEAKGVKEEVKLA

Row | SMILES | IC50 (HDAC3; [6]) | IC50 (HDAC1; [7]) | IC50 (HDAC2; [8]) | HDAC isoform selectivity [1] | other results
1 | Nc1cc(F)ccc1NC(=O)c1ccc(CNc2nccc(-c3cccnc3)n2)cc1 [Cmpd 2A, reference compound] |  |  |  |  | IC50 (HDAC3; [3]): 17 nM; IC50 (HDAC1; [4]): 12 nM; IC50 (HDAC2; [5]): 18 nM
2 | Nc1ccccc1NC(=O)c1ccc(CNC(=O)/C=C/c2cccnc2)cc1 [Cmpd 3A, reference compound] |  |  |  |  | IC50 (HDAC3; [3]): 22 nM; IC50 (HDAC1; [4]): 4 nM; IC50 (HDAC2; [5]): 23 nM
3 | CC(=O)Nc1ccc(C(=O)Nc2ccc(Cl)cc2N)cc1 [Compound 2, 4-acetamido-N-(2-amino-4-chlorophenyl)benzamide] | 2050 nM | 4560 nM | 24400 nM |  | 
4 | CC(=O)Nc1ccc(C(=O)Nc2c(N)cccc2F)cc1 [Compound 3, 4-acetamido-N-(2-amino-6-fluorophenyl)benzamide] | 551 nM | 2180 nM | 4930 nM | HDAC3 selective compound | 
5 | CC(=O)Nc1ccc(C(=O)Nc2cccc(F)c2N)cc1 [Compound 4, 4-acetamido-N-(2-amino-3-fluorophenyl)benzamide] | 376 nM | 2120 nM | 4440 nM | HDAC3 selective compound | 
6 | CC(=O)Nc1ccc(C(=O)Nc2cc(Br)ccc2N)cc1 [Compound 5, 4-acetamido-N-(2-amino-5-bromophenyl)benzamide] | 299 nM | 1730 nM | 3540 nM |  | 
7 | CC(=O)Nc1ccc(C(=O)Nc2ccc(F)cc2N)c(F)c1 [Compound 6, 4-acetamido-N-(2-amino-4-fluorophenyl)-2-fluorobenzamide] | 80 nM | 1380 nM | 3120 nM | HDAC3 selective compound | 
8 | Nc1cc(F)ccc1NC(=O)c1ccccc1 [Compound 7, N-(2-amino-4-fluorophenyl)benzamide] | 418 nM | 7950 nM | 12700 nM | HDAC3 selective compound | 
9 | Nc1cc(F)ccc1NC(=O)c1ccc(F)cc1 [Compound 8, N-(2-amino-4-fluorophenyl)-4-fluorobenzamide] | 436 nM | 8260 nM | 11700 nM | HDAC3 selective compound | 
10 | CC(=O)Nc1ccc(C(=O)Nc2ccc(C(F)(F)F)cc2N)cc1 [Compound 10, 4-acetamido-N-(2-amino-4-(trifluoromethyl)phenyl)benzamide] | > 33000 nM | > 33000 nM | > 33000 nM |  | 
11 | CC(=O)Nc1ccc(C(=O)Nc2cc(F)ccc2N)cc1 [Compound 11, 4-acetamido-N-(2-amino-5-fluorophenyl)benzamide] | 106 nM | 153 nM | 479 nM |  | 
12 | CC(=O)Nc1ccc(C(=O)Nc2ccccc2N)c(F)c1 [Compound 12, 4-acetamido-N-(2-aminophenyl)-2-fluorobenzamide] | 84 nM | 90 nM | 304 nM |  | 
13 | Cc1ccc(C(=O)NCCCCCC(=O)Nc2ccc(F)cc2N)cc1 [Repligen 136, N-(6-(2-amino-4-fluorophenylamino)-6-oxohexyl)-4-methylbenzamide, reference compound] |  |  |  |  | AUC Brain [2, 9]: 0.32 µM·h; Cmax Brain [2, 9]: 370 nM; concentration in the brain over time [2, 9]: not measurable after 2 hours; half-life ([2]; brain, read-out: T1/2 Brain (converted)): 20.4 min; half-life ([2]; plasma, read-out: T1/2 Plasma (converted)): 82.8 min
